pIC50: −log10 of the molar value. ≈ marks a conversion by molar mass, not a printed value.

Data on 30 compounds can be found in ChEMBL document CHEMBL5113402, “Inhibition of cytochrome P450 monooxygenase-catalyzed oxylipin formation by flavonoids: Evaluation of structure-activity relationship towards CYP4F2-selective inhibitors” (Eur J Med Chem, 2022).

Series [1] addresses CYP450 (20-HETE formation) (Homo sapiens, UniProt P04798+P05177+P05181+P08684+P10632+P10635+P11509+P11712+P13584+P20813+P20815+P20853+P24462+P24903+P33260+P33261+P51589+P78329+P98187+Q02928+Q08477+Q16678+Q16696+Q5TCH4+Q6VVX0+Q7Z449+Q8TAV3+Q96SQ9+Q9HB55). Briefly: Inhibition of CYP450 in human liver microsomes assessed as inhibition of 20-HETE formation at 10 uM in presence of arachidonic acid and NADPH by multi-enzyme assay based LC-MS/MS analysis relative to control. The series is classed as ADME, Microsome. The note with it: probe arachidonic acid.

For another series, the species on record is Homo sapiens. Kind of series: Selectivity index, log ratio of Inhibition of CYP450 in human liver microsomes assessed as inhibition of EpETrE formation in presence of arachidonic acid to Inhibition of CYP450 in human liver microsomes assessed as inhibition of 20-HETE formation in presence of arachidonic acid.
Series [2] deals with CYP450 (EpETrE formation) (Homo sapiens, UniProt P04798+P05177+P05181+P08684+P10632+P10635+P11509+P11712+P13584+P20813+P20815+P20853+P24462+P24903+P33260+P33261+P51589+P78329+P98187+Q02928+Q08477+Q16678+Q16696+Q5TCH4+Q6VVX0+Q7Z449+Q8TAV3+Q96SQ9+Q9HB55). Briefly: Inhibition of CYP450 in human liver microsomes assessed as inhibition of EpETrE formation at 10 uM in presence of arachidonic acid and NADPH by multi-enzyme assay based LC-MS/MS analysis relative to control. The note with it: probe arachidonic acid. The series is classed as ADME, Microsome. On the technique in general: Liver microsomes are vesicles of endoplasmic reticulum, rich in cytochrome P450 enzymes.

The next series addresses T1, Cytochrome P450 4F2 (Homo sapiens, UniProt P78329).
T1 sequence (P78329 whole entry): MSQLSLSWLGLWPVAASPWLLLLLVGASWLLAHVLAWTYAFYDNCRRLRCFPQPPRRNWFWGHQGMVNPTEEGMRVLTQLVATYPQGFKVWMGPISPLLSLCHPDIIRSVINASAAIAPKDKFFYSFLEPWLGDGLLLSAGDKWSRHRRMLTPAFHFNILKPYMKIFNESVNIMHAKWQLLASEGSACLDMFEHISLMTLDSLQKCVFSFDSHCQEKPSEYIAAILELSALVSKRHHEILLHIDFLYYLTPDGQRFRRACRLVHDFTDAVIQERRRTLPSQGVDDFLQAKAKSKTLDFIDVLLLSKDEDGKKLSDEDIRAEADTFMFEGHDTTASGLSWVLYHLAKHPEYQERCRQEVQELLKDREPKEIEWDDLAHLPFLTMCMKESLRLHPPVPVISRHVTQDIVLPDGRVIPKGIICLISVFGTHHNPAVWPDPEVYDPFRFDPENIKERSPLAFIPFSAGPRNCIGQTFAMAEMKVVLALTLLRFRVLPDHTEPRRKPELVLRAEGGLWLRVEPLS
Briefly: Inhibition of recombinant CYP4F2 (unknown origin) incubated for 5 to 15 mins in presence of NADPH by LC-MS/MS analysis. It counts as ADME.

The nature of series [3]: Solubility of the compound in phospahte-buffered saline buffer at pH 7.4 by shake flask method. The note with it: phosphate-buffered saline. The series is classed as physicochemical.

In the case of `COc1ccc2oc(-c3ccccc3)cc(=O)c2c1` [6-METHOXYFLAVONE], the inhibition (usually the relative decrease from the control value, in per cent) at 10 µM in series [1] is below 15%; in series [2], 16%. The log(ratio) in the series listed under Homo sapiens is -0.05.

In the case of `COc1cccc(-c2coc3ccccc3c2=O)c1`, the inhibition at 10 µM in series [1] and in series [2] was below 15% each time. Moreover, the log(ratio) in the series listed under Homo sapiens came out at 0.

Consider `O=c1cc(-c2ccccc2)oc2ccccc12` [FLAVONE], for which the inhibition at 10 µM in series [1] and in series [2] was below 15% throughout. Also, in the series filed under Homo sapiens, the log(ratio) stood at 0.

In the case of `O=c1c(-c2ccc(O)cc2)coc2cc(O)cc(O)c12` [GENISTEIN], the results for the inhibition at 10 µM in series [1] and in series [2] were 39% and below 15%, respectively. In addition, in the series filed under Homo sapiens, the log(ratio) amounted to 0.49.

In the case of `O=c1cc(-c2ccc(O)cc2)oc2ccccc12`, the inhibition at 10 µM in series [1] and in series [2] was below 15% throughout. For the same compound, the log(ratio) in the series listed under Homo sapiens worked out at 0.05.

Consider `COc1ccc2c(=O)cc(-c3ccccc3)oc2c1` [7-METHOXYFLAVONE], for which the values for the inhibition at 10 µM in series [1] and in series [2] were below 15% and 50%, respectively.

Regarding `COc1cccc(-c2cc(=O)c3cc(OC)ccc3o2)c1` [6,3'-DIMETHOXYFLAVONE], the inhibition at 10 µM in series [1] and in series [2] was below 15% throughout. In the series listed under Homo sapiens, the log(ratio) was -0.09.

`COc1ccc(-c2coc3cc(O)cc(O)c3c2=O)cc1` [BIOCHANIN]: the inhibition at 10 µM in series [1] was 25%; in series [2] it was below 15%. Moreover, the log(ratio) in the series filed under Homo sapiens was 0.25.

As for `COc1ccccc1-c1cc(=O)c2ccccc2o1`, the inhibition at 10 µM is below 15% in series [1] and 37% in series [2]. Moreover, the log(ratio) in the series listed under Homo sapiens was -0.4.

On to `O=c1cc(-c2ccc(O)c(O)c2)oc2ccc(O)cc12`, for which the inhibition at 10 µM in series [1] was 26%; in series [2], below 15%. For the same compound, the log(ratio) in the series listed under Homo sapiens was 0.29.

Take `CC(=O)OC[C@@]12CC[C@@]3(C)[C@H]4C(=CC[C@]3(C)[C@H]1[C@H](O)C[C@H]2C(C)C)[C@@]1(C)CCC(=O)C(C)(C)[C@@H]1C[C@@H]4O` [RUBIARBONONE C]: on Cytochrome P450 4F2, the pIC50 (as a rule, the negative decadic logarithm of the IC50, by convention in mol/L) was 5.38.

As to `O=c1c(-c2ccccc2)coc2ccccc12` [ISOFLAVONE], the inhibition at 10 µM in series [1] and in series [2] was below 15% each time. Moreover, the log(ratio) in the series listed under Homo sapiens stood at 0.19.

For the compound `O=c1cc(-c2ccccc2)oc2cc(O)ccc12` [7-HYDROXYFLAVONE], the inhibition at 10 µM is below 15% in series [1] and 35% in series [2].

`O=c1cc(-c2ccc(O)c(O)c2)oc2ccccc12`: the inhibition at 10 µM in series [1] was 32%; in series [2] it was 19%. Moreover, in the series listed under Homo sapiens, the log(ratio) stood at 0.17.

Regarding `COc1ccc2oc(-c3ccc(C(F)(F)F)cc3)cc(=O)c2c1`, the solubility (thermodynamic) (usually the concentration in solution at equilibrium with solid) in series [3] came out at 1 µM (≈ 0.32 µg/mL). Besides, the inhibition at 10 µM in series [1] is 55%; in series [2] it was below 15%. The log(ratio) in the series listed under Homo sapiens was 0.59.

For `O=c1cc(-c2ccccc2)oc2cc(O)c(O)c(O)c12` [BAICALEIN], the inhibition at 10 µM in series [1] was below 15%; in series [2], 32%. In addition, the log(ratio) in the series filed under Homo sapiens was -0.36.

For `COc1ccccc1-c1coc2ccccc2c1=O`, the inhibition at 10 µM in series [1] and in series [2] was below 15% each time. In addition, in the series listed under Homo sapiens, the log(ratio) was -0.15.

As to `O=c1cc(-c2ccc(Br)cc2)oc2ccccc12`, the results for the inhibition at 10 µM in series [1] and in series [2] were 35% and below 15%, respectively. For the same compound, the log(ratio) in the series filed under Homo sapiens was 0.4.

On to `COc1ccc2oc(-c3ccc(OC)c(OC)c3)cc(=O)c2c1`, for which the inhibition at 10 µM in series [1] and in series [2] was below 15% throughout. In addition, the log(ratio) in the series listed under Homo sapiens came out at 0.07.

Regarding `O=c1cc(-c2ccccc2O)oc2ccccc12`, the inhibition at 10 µM in series [1] is below 15%; in series [2], 24%. In addition, the log(ratio) in the series listed under Homo sapiens is -0.29.

On to `COc1ccc2oc(-c3ccc(Br)cc3)cc(=O)c2c1`, for which the inhibition at 10 µM in series [1] was 17%; in series [2], below 15%. The log(ratio) in the series filed under Homo sapiens stood at 0.16.

Take `COc1ccc(-c2coc3ccccc3c2=O)cc1OC`: the inhibition at 10 µM in series [1] is 27%; in series [2], below 15%. Further, the log(ratio) in the series filed under Homo sapiens came out at 0.22.

As for `COc1ccc(-c2coc3ccccc3c2=O)cc1`, the inhibition at 10 µM in series [1] and in series [2] was below 15% throughout. Also, the log(ratio) in the series filed under Homo sapiens worked out at 0.18.

Take `O=c1cc(-c2ccc(Br)cc2)oc2ccc(O)cc12`: the inhibition at 10 µM in series [1] and in series [2] was below 15% in each case. Also, in the series listed under Homo sapiens, the log(ratio) was found to be 0.

For the compound `Cc1ccc(-c2cc(=O)c3ccccc3o2)cc1`, the inhibition at 10 µM was determined as 32% in series [1] and 26% in series [2]. For the same compound, the log(ratio) in the series listed under Homo sapiens is 0.07.

For `COc1ccc(-c2cc(=O)c3ccccc3o2)cc1OC` [3',4'-DIMETHOXYFLAVONE], the inhibition at 10 µM in series [1] was 18%; in series [2], below 15%. Moreover, the log(ratio) in the series listed under Homo sapiens stood at 0.08.

In the case of `COc1ccc(-c2cc(=O)c3cc(OC)ccc3o2)cc1` [6,4'-DIMETHOXYFLAVONE], the inhibition at 10 µM in series [1] and in series [2] was below 15% throughout. Also, the log(ratio) in the series filed under Homo sapiens was found to be 0.

Consider `COc1cc2oc(-c3ccccc3)cc(=O)c2c(OC)c1OC` [BAICALEIN TRIMETHYL ETHER], for which the inhibition at 10 µM in series [1] and in series [2] was below 15% each time. In the series filed under Homo sapiens, the log(ratio) is -0.09.

Turning to `O=c1cc(-c2ccccc2)oc2ccc(O)cc12` [6-HYDROXYFLAVONE], the inhibition at 10 µM is below 15% in series [1] and 15% in series [2]. In addition, the log(ratio) in the series filed under Homo sapiens was -0.01.

`COc1ccc(-c2cc(=O)c3ccccc3o2)cc1` [4'-METHOXYFLAVONE]: the inhibition at 10 µM in series [1] came out at 27%; in series [2], 20%. For the same compound, the log(ratio) in the series listed under Homo sapiens was 0.13.
